Data published in paper PMC6736568, “Discovery of Novel Anti-cryptosporidial Activities From Natural Products by in vitro High-Throughput Phenotypic Screening” (Frontiers in Microbiology, 2019).
Counter-ions that a name gives are not always drawn. Like-named read-outs stand apart in the source and are kept apart here.

Legend:
[1] = in vitro; conditions: for cytotoxicity at 41 h, 10 µM: human
[2] = tested on: Cryptosporidium parvum; assay: qRT-PCR assay of the growth of C. parvum in vitro in HCT-8 host cells (primary and secondary screening, EC50); assay type: cell-based; conditions: Cryptosporidium parvum, HCT-8; for inhibition at 3.3 µM: secondary screening at 3.3 uM, read-out: % Inhibition (3.3 uM)
[3] = tested on: HCT-8 host cells (Hs18S)
[4] = primary screening at 10 uM, read-out: Inhibition (%)
[5] = primary screening at 10 uM, treated vs control

Hs18S ΔCT ([3]; human, 41 h, 10 μM) | SMILES | cytotoxicity at 41 h, 10 µM [1] | inhibition at 10 µM [2, 4] | cytotoxicity at 10 µM [1] | inhibition at 10 µM [2] | Hs18S ΔCT [3] | Hs18S ΔCT [3, 5] | inhibition at 3.3 µM [2]
-0.01 | O=c1c(O)cccc2cc(O)c(O)c(O)c12 [PURPUROGALLIN] | -0.7% | -12.6% |  |  |  |  | 
 | NCCCCN [PUTRESCINE DIHYDROCHLORIDE] |  |  | -3% | 28.7% | -0.04 |  | 
 | CC[C@@]1(O)C[C@H](O[C@H]2C[C@H](N(C)C)[C@H](O)[C@H](C)O2)c2c(cc3c(c2O)C(=O)c2c(O)ccc(O)c2C3=O)[C@H]1C(=O)OC [PYRROMYCIN] |  | -46.1% | 21.5% |  |  | 0.35 | 
0.08 | COC1=C[C@@H](C)[C@@H]2C[C@H]3OC(=O)C[C@H]4C(C)=C(OC)C(=O)[C@H]([C@@]2(C)C1=O)[C@@]34C [QUASSIN] | 5.1% | 29.4% |  |  |  |  | 
-0.16 | CO[C@H]1[C@H](O)[C@@H](O)[C@H](O)[C@H](O)[C@H]1O [QUEBRACHITOL] | -11.4% | -39% |  |  |  |  | 
 | O=c1c(O)c(-c2ccc(O)c(O)c2)oc2cc(O)cc(O)c12 [QUERCETIN] |  | 78.4% | 21.1% |  |  | 0.34 | -27%
 | C[C@@H]1O[C@@H](Oc2c(-c3ccc(O)c(O)c3)oc3cc(O)cc(O)c3c2=O)[C@H](O)[C@H](O)[C@H]1O [QUERCITRIN] |  | 3.89% | -57.2% |  |  | -0.65 | 
0.23 | O=C(O)[C@]1(O)C[C@@H](O)[C@@H](O)[C@H](O)C1 [QUINIC ACID] | 14.6% | 69.4% |  |  |  |  | -6%
-0.03 | C=C[C@H]1C[N@@]2CC[C@H]1C[C@@H]2[C@@H](O)c1ccnc2ccc(OC)cc12 [QUINIDINE GLUCONATE] | -2% | 11.2% |  |  |  |  | 
-0.12 | C=C[C@H]1C[N@@]2CC[C@H]1C[C@H]2[C@H](O)c1ccnc2ccc(OC)cc12 [QUININE SULFATE] | -8.7% | -15.4% |  |  |  |  | 
-0.17 | COC(=O)[C@H]1[C@H]2C[C@H]3c4[nH]c5ccccc5c4CCN3C[C@H]2CC[C@@H]1O [RAUWOLSCINE HYDROCHLORIDE] | -12.6% | 22.9% |  |  |  |  | 
0.50 | COC(=O)[C@H]1[C@H]2C[C@@H]3c4[nH]c5cc(OC)ccc5c4CCN3C[C@H]2C[C@@H](OC(=O)c2cc(OC)c(OC)c(OC)c2)[C@@H]1OC [RESERPINE] | 29.4% | 87% |  |  |  |  | 24%
 | COc1ccc(/C=C/c2cc(O)cc(O)c2)cc1 [RESVERATROL 4'-METHYL ETHER] |  | -37.3% | -29% |  |  | -0.37 | 
 | Oc1ccc(/C=C/c2cc(O)cc(O)c2)cc1 [RESVERATROL] | -9.6% | 93.5% |  |  |  | -0.13 | -24%
0.09 | CC1=C(/C=C/C(C)=C/C=C/C(C)=C/CO)C(C)(C)CCC1 [RETINOL] | 6.3% | 6.73% |  |  |  |  | 
 | COc1cc(O)c2c(=O)c(OC)c(-c3ccc(OC)c(OC)c3)oc2c1 [RETUSIN] |  | 33.2% | 17% |  |  | 0.27 | 
0.51 | CNc1ccccc1C(=O)N1CCc2c([nH]c3ccccc23)C1=O [RHETSININE] | 29.6% | -31.2% |  |  |  |  | 
-0.03 | COC1=C(O)C(=O)c2c(cc3oc(C(C)=O)c(O)c3c2O)C1=O [RHODOCLADONIC ACID] | -2.1% | 1.58% |  |  |  |  | 
-0.26 | C[C@@H]1O[C@@H](O[C@H]2[C@H](Oc3cc(O)c4c(=O)cc(-c5ccc(O)cc5)oc4c3)O[C@H](CO)[C@@H](O)[C@@H]2O)[C@H](O)[C@H](O)[C@H]1O [RHOIFOLIN] | -20% | 54.6% |  |  |  |  | 
0.02 | Cc1cc2nc3c(=O)[nH]c(=O)nc-3n(C[C@H](O)[C@H](O)[C@H](O)CO)c2cc1C [RIBOFLAVIN] | 1.1% | -26.6% |  |  |  |  | 
0.28 | COc1ccc(-c2c(O)c3c(OC)c4c(cc3oc2=O)OC(C)(C)C=C4)cc1 [ROBUSTIC ACID] | 17.8% | 9.13% |  |  |  |  | 
-0.04 | O=C(/C=C/c1ccc(O)c(O)c1)O[C@H](Cc1ccc(O)c(O)c1)C(=O)O [ROSMARINIC ACID] | -3.1% | 37.3% |  |  |  |  | 
 | C=C(C)[C@H]1Cc2c(ccc3c2O[C@@H]2COc4cc(OC)c(OC)cc4[C@@H]2C3=O)O1 [ROTENONE] |  | 74.7% | 57.8% |  |  | 1.24 | 76%
 | COc1cc2c(cc1OC)[C@@H]1C(=O)c3ccc(OC)c(CC=C(C)C)c3O[C@@H]1CO2 [ROTENONIC ACID, METHYL ETHER] |  | 11.8% | 18.7% |  |  | 0.30 | 
 | CC[C@@]1(O)C[C@H](O)c2c(cc3c(c2O)C(=O)c2c(O)ccc(O)c2C3=O)[C@H]1C(=O)OC [RUTILANTINONE] |  | 92% | -45.2% |  |  | -0.54 | -3%
